# From PMC9354565 (The journal of physical chemistry. B, 2022)
# Values joined by “and” are separate entries in the source; they are usually repeats but may differ in a detail not shown here. Equal values may be shown once. Read-outs that look alike come from different tables or passages of the source.
# T1: recombinant human ST2-Fc-Histag (human, UniProt Q01638 19-328)
# T1 sequence (looked up): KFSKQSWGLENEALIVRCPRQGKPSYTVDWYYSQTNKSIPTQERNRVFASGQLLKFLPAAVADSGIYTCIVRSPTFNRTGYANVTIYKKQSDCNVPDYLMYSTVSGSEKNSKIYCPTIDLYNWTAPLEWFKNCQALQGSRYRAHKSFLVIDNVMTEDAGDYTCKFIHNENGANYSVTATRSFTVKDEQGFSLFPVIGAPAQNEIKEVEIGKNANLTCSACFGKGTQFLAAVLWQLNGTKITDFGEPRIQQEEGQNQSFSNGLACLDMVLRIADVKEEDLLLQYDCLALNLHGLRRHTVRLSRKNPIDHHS
# B1: recombinant human IL33, un-biotinylated (ligand)
# chain: SITGISPITEYLASLSTYNDQSITFALEDESYEIYVEDLKKDEKKDKVLLSYYESQHPSNESGDGVDGKMLMVTLSPTKDFWLHANNKEHSVELHKCEKPLPDQAFFVLHNMHSNCVSFECKTDPGVFIGVKDNHLALIKVDSSENLCTENILFKLSET
# Experiments:
# [1] = pH measurement of probes in the HTRF assay buffer; format: physicochemical; settings: for pH value of probe in the buffer: 30 mM probe; for pH value of the buffer with BZA: Figure 6C
# [2] = reported data, no reference given; cited from earlier work
# [3] = solubility observed in the HTRF screening; format: physicochemical; settings: at 10 mM in the HTRF assay
# ST2 (Homo sapiens) = ST2 (Homo sapiens) (UniProt Q01638); test: BLI; settings: cited from earlier work
# [4] = target: T1, recombinant human ST2-Fc-Histag; test: AlphaScreen or HTRF
# [5] = target: T1, recombinant human ST2-Fc-Histag; test: AlphaScreen or HTRF; remark: listed apart in the source
molecule,measurement,setting,value
"NCc1cccnc1 [AMP, 3-(aminomethyl)pyridine]",pH value of probe in the buffer,[1],9.4
same,pKa,[2],8.34
"N=C(N)c1ccccc1 [BZA, benzamidine]",pH value of the buffer with BZA,[1]; 0.12 mM BZA,7.5
same,pH value of the buffer with BZA,[1]; 3.3 mM BZA,10.1
same,pH value of the buffer with BZA,[1]; 30 mM BZA,10.8
same,pH value of probe in the buffer,[1],10.5
O=C(O)c1ccc2ccccc2c1O [Compound 1],solubility,[3],poor solubility
"O=C(O)c1cccnc1 [NA, nicotinic acid]",pH value of probe in the buffer,[1],5.1
"NC(=O)c1cccnc1 [NAM, nicotinamide]",pH value of probe in the buffer,[1],7.2
"O=C(O)c1ccccc1O [SA, salicylic acid]",pH value of probe in the buffer,[1],4.1
IL33 (from UniProt O95760),Kd,ST2 (Homo sapiens),2.23 nM
B1,IC50,[4],2.25 ± 0.98 nM
same,IC50 of one of two independent measurements,[4],2.94 nM and 1.5 nM
same,IC50,[5],3.7 ± 0.29 nM
same,IC50 of one of two independent measurements,[5],3.49 nM and 3.9 nM
